Experimental data taken from the Deep4Chem optical property database.

Assay: photoluminescence quantum yield (fraction); solvent given as SMILES
[1] = in O=P(c1ccccc1)(c1ccccc1)c1ccccc1Oc1ccccc1P(=O)(c1ccccc1)c1ccccc1

C[C@]12SC(=O)C=C1c1nc(-c3ccccc3)[nH]c1C1=CC(=O)S[C@@]12C
photoluminescence quantum yield (in CC#N): 0.16

CC(C)(C)c1ccc(-c2c(-c3cccc(-n4c5ccccc5c5ccccc54)c3)c(C#N)c(-c3cccc(-n4c5ccccc5c5ccccc54)c3)c(-c3ccc(C(C)(C)C)cc3)c2-c2ccc(C(C)(C)C)cc2)cc1
photoluminescence quantum yield (in C1CCOC1): 0.064

CC(C)(C)c1ccc2c(c1)sc1[n+]2[B-](F)(F)n2c(c3cccc4cccc2c43)=C1C#N
photoluminescence quantum yield (in C1CCOC1): 0.67
photoluminescence quantum yield (in CC#N): 0.74
photoluminescence quantum yield (in CCCCCC): 0.68
photoluminescence quantum yield (in Cc1ccccc1): 0.69
photoluminescence quantum yield (in ClCCl): 0.7

Cc1cc(C)c(B(c2cc(-c3ccccc3)sc2-c2sc(-c3ccccc3)cc2P(=O)(c2ccccc2)c2ccccc2)c2c(C)cc(C)cc2C)c(C)c1
photoluminescence quantum yield (in CO): 0.75

COC(=O)C1=NNC(C(=O)OC)=C2c3ccccc3C(=O)c3ccccc3C12 (configuration not stated)
photoluminescence quantum yield (in CC#N): 0.32

Cc1ccc(-c2ccc(/C=C/c3cccn3C)cn2)nc1
photoluminescence quantum yield (in C1COCCO1): 0.25
photoluminescence quantum yield (in CC#N): 0.087
photoluminescence quantum yield (in CCCCCC): 0.36
photoluminescence quantum yield (in CCO): 0.2
photoluminescence quantum yield (in CN(C)C=O): 0.19
photoluminescence quantum yield (in CO): 0.18
photoluminescence quantum yield (in CS(C)=O): 0.19
photoluminescence quantum yield (in Cc1ccccc1): 0.25
photoluminescence quantum yield (in ClC(Cl)Cl): 0.25
photoluminescence quantum yield (in c1ccccc1): 0.25

Cc1ccc(C(=O)OCc2ccc3c4cccc5cccc(c6cccc2c63)c54)cc1
photoluminescence quantum yield (in CCO): 0.93

Brc1ccc(N(c2ccc(/C=C/c3ccncn3)cc2)c2ccc(/C=C/c3ccncn3)cc2)cc1
photoluminescence quantum yield (in ClCCl): 0.69

c1ccc(C2(c3ccccc3)c3ccc4ccc5ccccc5c4c3-c3c2ccc2ccc4ccccc4c32)cc1
photoluminescence quantum yield (in ClCCl): 0.4

CC(C)c1cc(C(C)C)c(B2c3cc(N4c5ccccc5C(C)(C)c5ccccc54)ccc3N(c3ccccc3)c3ccc(N4c5ccccc5C(C)(C)c5ccccc54)cc32)c(C(C)C)c1
photoluminescence quantum yield (in c1cc(-c2cccc(-n3c4ccccc4c4ccccc43)c2)cc(-n2c3ccccc3c3ccccc32)c1): 0.95

Cc1ccc(-c2ccc(/C=C/c3ccc(Br)n3C)cn2)nc1
photoluminescence quantum yield (in CC#N): 0.13

Cc1ccc(C#Cc2ccc3ccc(=O)oc3c2)cc1
photoluminescence quantum yield (in CC#N): 0.016

N#Cc1cc(C#N)cc(-n2c3ccccc3c3cc(-c4ccc5c(c4)c4ccccc4n5-c4cc(C#N)cc(C#N)c4)ccc32)c1
photoluminescence quantum yield (in Cc1ccccc1): 0.5
photoluminescence quantum yield [1]: 0.58

c1ccc(-c2nc3sc4cc5c(cc4c3s2)OCO5)cc1
photoluminescence quantum yield (in CS(C)=O): 0.62

N#CC(C#N)=Cc1ccc2nc(C#Cc3ccc(N(c4ccccc4)c4ccccc4)cc3)sc2c1
photoluminescence quantum yield (in Cc1ccccc1): 0.47

COC(=O)c1ccc(C(=O)NC(C)(C)C)c2c1ccc1c3ccccc3c3ccccc3c12
photoluminescence quantum yield (in ClCCl): 0.08

c1ccc(Nc2nc(Nc3ccccc3)nc(Nc3ccc4c5cccc6cccc(c7cccc3c74)c65)n2)cc1
photoluminescence quantum yield (in C1COCCO1): 0.52
photoluminescence quantum yield (in CC#N): 0.42
photoluminescence quantum yield (in CCCCOCCCC): 0.5
photoluminescence quantum yield (in CCOC(C)=O): 0.44

Clc1ccc2nc3cc4ccccc4cc3c(-c3ccccc3)c2c1
photoluminescence quantum yield (in ClCCl): 0.38

O=C(O)c1c2ccccc2c(C(=O)O)c2ccccc12
photoluminescence quantum yield (in C1CCOC1): 0.66
photoluminescence quantum yield (in CN(C)C=O): 0.4

c1cc(-c2ccc3c(c2)CCCO3)ccc1-c1ccc2c(c1)CCCO2
photoluminescence quantum yield (in C1CCCCC1): 0.6

O=C([O-])c1cc2c(ccc3ccccc32)oc1=O
photoluminescence quantum yield (in O): 0.24

CCc1c(C(=O)OC)c(C(=O)OC)c2ccc(-c3ccccc3)nn12
photoluminescence quantum yield (in CCCCCC): 0.543

CC(=C(C#Cc1ccccc1)C#Cc1ccccc1)c1ccc(C(C)=C(C#Cc2ccccc2)C#Cc2ccccc2)cc1
photoluminescence quantum yield (in ClC(Cl)Cl): 0.03

CCCCCCc1ccc(-n2c3[n+](c4c5ccccc5c5ccccc5c42)[B-](C)(C)c2cc(-n4c5ccccc5c5ccccc54)ccc2-3)cc1
photoluminescence quantum yield (in C1CCOC1): 0.82
photoluminescence quantum yield (in CC#N): 0.71
photoluminescence quantum yield (in Cc1ccccc1): 0.76
photoluminescence quantum yield (in ClCCl): 0.83

c1cc2cc(c1)c1cccc(c1)c1cccc(c1)c1cccc(c1)c1cccc(c1)c1cccc2c1
photoluminescence quantum yield (in ClC(Cl)Cl): 0.06

c1ccc(-c2cc(-c3ccc(N4c5ccccc5C(c5ccccc5)(c5ccccc5)c5ccccc54)cn3)nc(-c3ccccc3)n2)cc1
photoluminescence quantum yield [1]: 0.86

N#CC(C#N)=Cc1ccc(-c2ccc(N(c3ccccc3)c3ccccc3)cc2)o1
photoluminescence quantum yield (in ClC(Cl)Cl): 0.19

CC(=O)OC[C@H]1O[C@@H](OCC#Cc2ccc(C3=C4C(C)=CC(/C=C/c5ccc([N+](C)(C)C)cc5)=[N+]4[B-](F)(F)n4c(/C=C/c5ccc([N+](C)(C)C)cc5)cc(C)c43)cc2)[C@H](OC(C)=O)C(OC(C)=O)[C@@H]1OC(C)=O (some centres not stated)
photoluminescence quantum yield (in CC#N): 0.72

c1ccc2c(c1)[nH]c1c3ccccc3[nH]c21
photoluminescence quantum yield (in CCCO): 0.89

CN(C)c1ccc(/C=C/c2ccc(-c3cc(-c4ccccn4)nc(-c4ccccn4)c3)cc2)cc1
photoluminescence quantum yield (in C1CCOC1): 0.54
photoluminescence quantum yield (in C1COCCO1): 0.48
photoluminescence quantum yield (in CC#N): 0.41
photoluminescence quantum yield (in CCO): 0.24
photoluminescence quantum yield (in ClCCl): 0.62

Cc1cc(/N=C/c2cc(S(=O)(=O)[O][Na])ccc2O)c(/N=C/c2cc(S(=O)(=O)[O][Na])ccc2O)cc1C
photoluminescence quantum yield (in O): 0.56

c1ccc2c(c1)c1ccccc1n2-c1ccc(-c2nnc(-c3ccc(-n4c5ccccc5c5ccccc54)cc3)o2)cc1
photoluminescence quantum yield [1]: 0.93
